“Also recorded” adds a separate entry of the source. Read-outs that look alike come from different tables or passages of the source.
Key:
[1] = system: isolated perfused human and bovine anterior eye segments; conditions: ref [15]; cited from earlier work
Source text: (§1) Despite the presence of the kallikrein/kinin enzyme and receptor system in the h-CM tissue and cells, with B2-receptor immunoreactivity also found in the cynomolgus monkey CM (Figure 2B), the physiologic roles of BK and its receptors in this tissue and cells remain to be elucidated. Indeed, there are conflicting reports in the literature regarding the functions and involvement of BK in modulating IOP in various animal models.

albino rabbits = conditions: topical dosing, ref [8]; cited from earlier work
Source text: as §1

[2] = cited from earlier work
Source text: as §1

[3] = system: isolated perfused bovine eyes; conditions: ref [16]; cited from earlier work
Source text: as §1

cynomolgus monkey eyes = conditions: intracameral, ref [12], cited from earlier work
Source text: as §1

pro-MMPs, h-CM cells = assay: pro-MMP release from h-CM cells (several pro-MMPs stated together); assay type: cell-based, human; conditions: BK 0.1–1 µM at 24 h
Protocol: (§2) Measurement of extracellular signal-regulated kinase-1/2 phosphorylation and pro-matrix metalloproteinase production
The release of pro-MMP-1/2/3 in the extracellular medium of h-CM cells exposed to kinin’s, for 24 h at 37 °C [29, 30] was studied next. Thus, h-CM cells isolated from multiple human donor eyes were cultured as described above and then serum-starved for 24 h prior to the addition of any test compound. Cells were incubated with the vehicle or test compound for 24 hours at 37 °C after which the medium was collected and concentrated ten-fold using Centricon concentrators (Millipore Corp., Bellireca, MA). Equal volumes of this concentrate were loaded on 10% SDS-polyacrylamide gels (SDS-PAGE) and the proteins separated and transferred to nitrocellulose membranes. The membranes were then blocked with 5% non-fat dry milk (Bio-Rad Laboratories, Hercules, CA) followed by incubation with antibodies to pro-MMP-1, pro-MMP-2, or pro-MMP-3 for 12 hours at 4 °C with gentle shaking. After washing, these membranes were incubated with appropriate secondary antibodies (HRP-conjugated; dilution 1:3000) for 1 hour at 20 °C. […] For chemiluminescent detection, the membranes were treated with enhanced chemiluminescent reagent (Amersham Pharmacia, Piscataway, NJ) and the signal was quantified using a Bio-Rad Versadoc imaging system (Bio-Rad Laboratories, Hercules, CA).

[4] = system: ERK1/2 phosphorylation, h-CM cells; assay: ERK1/2 phosphorylation in h-CM cells (HTRF); assay type: cell-based, human; conditions: 100 nM
Protocol: as §2
In the current assay, an homogeneous-time-resolved fluorescence (HTRF) assay (CisBio; Bedford, MA) was used. The HTRF assay is based on a sandwich immunoassay using an antiphospho-ERK1/2 antibody labeled with D2 and an anti-ERK1/2 antibody labeled with Eu^3+-Cryptate. In brief, h-CM cells (passage 7) were cultured in 96-well half-area white plates and incubated overnight, at 37 °C in CO2 atmosphere. […] Lysis buffer provided in the HTRF kit was used to lyse the cells at 23 °C with shaking for 30 min after the agonist treatment. HTRF conjugates containing phospho-ERK1/2 antibodies were then added to the lysates and incubated for an additional 2 h at 23 °C. The fluorescence signal was recorded using a Tecan M1000 fluorescence plate reader ([…]) at 620 nm for the donor and 665 nm for the acceptor.

rabbit eyes = assay: IOP after intravitreal injection in Dutch-Belt rabbits; assay type: in vivo, pigmented Dutch-Belt rabbit; conditions: for IOP reduction, rabbit: 50 µg intravitreal, n=7–10
Protocol: Intraocular pressure measurements
To extend our in vitro observations of the high density of B2-receptor protein in human and cynomolgus monkey ciliary muscle and non-pigmented ciliary epithelium, we studied the effects of topically administered BK (100 µg total dose in a sterile vehicle) on IOP in normotensive and TM-ablated hypertensive eyes of these animals. […] However, since we could not subject the monkeys to additional studies involving BK delivery to the eye interior, it was decided that intravitreal (ivt) injection of BK into pigmented Dutch-Belt rabbits would be worth pursuing. Thus, after light corneal anesthesia with 0.1% proparacaine, basal IOPs were determined in up to 10 Dutch-Belt rabbits using an Alcon Pneumotonometer (Alcon Laboratories Inc., Fort Worth, TX). After this time, 50 µg of BK (B2 agonist) or Des-Arg^9-BK (B1 agonist) in 20 µl of sterile basal salt solution (BSS plus), or just BSS plus vehicle, was injected ivt into one eye of each rabbit and the IOP determined at various times thereafter. Authors confirm adherence to the ARVO Statement for Animals in Ophthalmic and Vision Research, with all animal studies conducted according the guidelines for Animal Care and Use at Alcon Research Ltd.
Figure 8 Time-course of changes in rabbit intraocular pressure (IOP) with different kinin peptide agonists. Three groups of Dutch-Belt rabbits (n=7–10/group) were injected ivt in one eye with either vehicle or 50 µg of BK or 50 µg of Des-Arg^9-BK dissolved in the vehicle and the IOP monitored over time. Data are mean±SEM.

CHO-B2 cells = conditions: read-out: PGD2 production in CHO-B2 cells (EC50), 1 h at 37 °C, enzyme immunoassay
Protocol: Measurement of prostaglandins in human ciliary muscle and Chinese hamster ovary cells expressing B2 receptors
This involved stimulating h-CM cells and CHO-B2 cells with various concentrations of test peptides and measuring the release of various PGs in the extracellular medium. The concentration-dependent effects of these peptides on total PGs, and specifically PGE2, PGF2α, and PGD2 release, were studied. Cells were grown as a monolayer in a 24-well plate (precoated with fibronectin) to confluence and subsequently serum-starved overnight before the experiment. On the day of the experiment, just before the drug was added, the wells were aspirated completely, and 990 µl basal medium and 10 µl 100× series of concentrations of the different peptide agonists were added to achieve the desired final concentrations of each compound (e.g., 0.1 nM to 10 µM). […] At the end of the incubation period, the cellular supernatants were collected and stored at −80 °C or used immediately to determine the PG content. Cell supernatants were tested for total PG levels and sub-species of PGs (PGE2, PGF2α, and PGD2) using specific competitive enzyme immunoassays (Cayman Chemical Co., Ann Arbor, MI) as directed in the manufacturer’s recommended protocols using the supplied standards and reagents. The limits of detection for various PGs were as follows: total PGs=29 pg/ml; PGE2=15 pg/ml; PGF2α=9 pg/ml; PGD2=200 pg/ml.

[5] = intracameral injection, ref [10],[14]

Substance: H-RPPGFSPFR-OH [BK]
- Outflow facility [1]: decreased outflow facility
- IOP effect (albino rabbits): lowered IOP
- IOP effect [2, 5]: raised IOP
- Pupil effect [2, 5]: caused intense miosis
- IOP effect ([2]; intravenous infusion, ref [9]): lowered IOP
- Aqueous humor inflow and outflow ([2]; ref [11]): increased aqueous humor inflow and outflow
- Outflow [3]: apparent increase in outflow
- Aqueous humor outflow (cynomolgus monkey eyes; no ciliary muscle retrodisplacement): no effect on aqueous humor outflow
- Aqueous humor outflow (cynomolgus monkey eyes; with ciliary muscle retrodisplacement): decreased outflow
- Increase in promatrix metalloproteinases-1–3 release (pro-MMPs, h-CM cells): 1.4–3.1 fold
- Increase in ERK1/2 phosphorylation (abstract) [4]: twofold
- IOP reduction, rabbit (rabbit eyes; 5 h post-injection): 22.9±7.3%
- IOP reduction, rabbit (rabbit eyes; 8 h post-injection (maximal)): 37.0±5.6%
- Effect on rabbit IOP (rabbit eyes; BK 50 µg intravitreal, 5–8 h post injection): time-dependent reduction in IOP; also recorded: robust lowering of the IOP
- EC50 (CHO-B2 cells; first of two values in cell): 0.0113 nM
- EC50 (CHO-B2 cells; second of two values in cell): 0.181 nM
